Where two headings read alike, the source gives them in different places.
Assays:
[1] = target: T1, His-tagged human recombinant DDR-2 kinase domain (His-TEV-DDR2 467-855 aa) (Homo sapiens, UniProt Q16832); experiment: Autophosphorylation assay for biochemical activity testing of DDR2 (HTRF); conditions: 4 nM DDR2 kinase domain, 150 μM ATP, 150 min at 22° C.
T1 construct: His-TEV-DDR2 467-855 aa
T1 sequence (Q16832 467-855): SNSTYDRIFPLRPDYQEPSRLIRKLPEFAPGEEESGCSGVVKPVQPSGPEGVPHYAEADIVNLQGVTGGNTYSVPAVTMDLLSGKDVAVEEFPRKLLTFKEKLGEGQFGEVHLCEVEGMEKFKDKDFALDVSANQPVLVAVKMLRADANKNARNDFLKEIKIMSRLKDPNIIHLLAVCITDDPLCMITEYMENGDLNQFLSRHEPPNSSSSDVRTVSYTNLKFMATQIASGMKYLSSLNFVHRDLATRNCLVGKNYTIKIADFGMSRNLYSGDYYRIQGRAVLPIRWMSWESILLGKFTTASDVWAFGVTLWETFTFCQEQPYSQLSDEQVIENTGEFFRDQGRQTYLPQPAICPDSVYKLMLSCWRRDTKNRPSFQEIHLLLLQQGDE
Summary of the method: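 Phospho-tyrosine was detected by HTRF between XL665 anti-6His and cryptate anti-phosphotyrosine PT66 antibodies, using the emission ratio. Inhibition was referenced to the inhibitor-free reaction.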

[2] = test system: proMMP13 production by SW1353 cells; experiment: Production of MMP13 (proMMP13 ELISA) by SW1353 cells upon stimulation with collagen type II; assay type: cell-based; conditions: Homo sapiens, read-out: IC50 [pro-MMP13]
Description: The binding of Collagen type II to the DDR2 receptor of the SW1353 cells initiate a signalling cascade resulting in the increase of MMP13 expression. MMP13 is released in the culture medium in its pro-form, the proMMP13 which can be measured with an ELISA.
DDR2 inhibitors are evaluated for their ability to block this signalling cascade and therefore proMMP13 production upon collagen stimulation.
SW1353 cells (ATCC, HTB-94), conserved in liquid nitrogen, are thawed and cultivated at 1.6.10^6 cells in a T75 in RPMI1640 supplemented with 2 mM Glutamin, 1 mM Na-Pyruvate, 10% FCS, at 37° C., 5% CO2 for three days. SW1353 cells are then harvested with trypsin/EDTA and resuspended in RPMI1640 supplemented with 2 mM Glutamin, 1 mM Na-Pyruvate, 25 mM HEPES and 0.5% FCS (assay medium) and inoculated in a 96 well plate at 30 000 cells/well in 100 μL of the assay medium and further incubated 24 hours at 37°, 5% CO2 to enable cell adhesion. For stimulation of the DDR2 receptor, 50 μL of a collagen type II solution 160 μg/mL (final concentration in the well is 40 μg/mL) will be added in each well as well as 50 μL of the different dilutions of the inhibitors (MSCs) from 0.003 μM to 10 μM (final concentration in the plate). Each condition is performed in four-plicates. After three additional days of culture, the supernatant will be harvested for proMMP13 measurement.
The Different Controls Present on Each Plate are Composed of Assay Medium with: Positive control (with the reference compound): 40 μg/mL Collagen type II, 0.03 μM Dasatinib (reference compound) in 0.1% DMSO Negative control (no inhibition): 40 μg/mL Collagen type II and 0.1% DMSO Medium control (no stimulation): 0.005% Acetic acid and 0.1% DMSO All wells contains 0.1% DMSO and 0.005% acetic acid.
The solutions needed are: • Collagen type II is diluted at 2 mg/mL in 0.25% acetic acid. This stock solution can be stored at 4° C. for a week and is diluted 1/12.5 in the assay medium (to obtain 160 μg/mL in 0.02% acetic acid) before being used in the assay. • MSCs from 0.012 to 40 μM in assay medium with 0.4% DMSO (they are then further diluted ¼ in the assay plate) • Dasatinib 0.12 μM in assay medium with 0.4% DMSO (it is then further diluted ¼ in the assay plate) • Acetic acid 0.02% in assay medium (control).
The harvested supernatants are either directly used or stored at −20° C. until use. ProMMP13 is measured with a commercial ELISA kit, according the recommendation of the manufacturer (see Annex). Briefly, 50 μL of each samples are used undiluted and the standard curve is realised in the assay medium. At the end of the assay the ELISA plate is read on a Paradigm MTP-Reader (Beckman Coulter) at 540 (reference wavelength) and 450 nm. All the absorbance values obtained at 450 nm are corrected with the absorbance at 540 nm and a ‘Four Parameter Fit’ is used to establish the standard curve. From the standard curve the concentrations of proMMP13 in all the samples are calculated. All the calculations are realised by the Paradigm software.
The data reported in the database are the % effect of the compounds at the two highest concentrations (10 and 3 μM) as well as the IC50.
% effect at the two highest concentrations is calculated according to the formula: […]
The IC50s are calculated with the software Graph Pad Prism (see tables in Example 1).

[3] = 72 h, SW1353 cells, 40 μg/mL collagen type II, three days

Row | Structure (SMILES) | IC50 [1] [nM] | IC50 [2, 3] [nM] | IC50 ([2]; SW1353, 72 h) [nM]
1 | Cc1cc(Oc2ccc(CNC(=O)Nc3cc(C(F)(F)F)cnc3Cl)cc2C)ccn1 [compound 30] | 100 | 960 | 
2 | COc1ncc(Cl)cc1NC(=O)NCc1ccc(Oc2ccnc(C)c2)c(C)c1 [compound 28] | 110 | 348 | 
3 | Cc1cc(Oc2ccc(CNC(=O)Nc3cc(C(F)(F)F)cn(C)c3=O)cc2C)ccn1 [compound 6] | 110 | 258 | 
4 | COc1ncc(C)cc1NC(=O)NCc1ccc(Oc2ccncc2)cc1 [compound 18] | 100 | 733 | 
5 | CNC(=O)c1cc(Oc2ccc(CNC(=O)Nc3cc(Cl)cnc3OC)cc2C)ccn1 [compound 23] | 37 | 45.4 | 
6 | CNC(=O)c1cc(Oc2ccc(CNC(=O)Nc3cc(C)cnc3OC)cc2)ccn1 [compound 19] | 63 | 155 | 
7 | CNC(=O)c1cc(Oc2ccc(CNC(=O)Nc3cc(C(F)(F)F)cn(C)c3=O)cc2)ccn1 [compound 8] | 97 |  | 14.8
8 | CNC(=O)c1cc(Oc2ccc(CNC(=O)Nc3cc(Cl)cnc3OC)cc2)ccn1 [compound 21] | 44 | 69 | 
9 | CNC(=O)c1cc(Oc2ccc(CNC(=O)Nc3cc(C(F)(F)F)cn(C)c3=O)cc2C)ccn1 [compound 7] | 37 | 32.9 | 
10 | CNC(=O)c1cc(Oc2ccc(CNC(=O)Nc3cc(C(F)(F)F)cnc3Cl)cc2C)ccn1 [compound 26] | 52 | 42.4 | 
